Consider 31 molecules from patent publication US20070010671A1, “Novel quinazoline derivatives and methods of treatment related to the use thereof” (priority 2003, published 2007).

This experiment has as its target MCH receptor (Homo sapiens, UniProt Q99705). In words: High throughput functional screening FLIPR/FDSS6000: inhibition of MCH-evoked intracellular Ca2+ changes. It is filed as cell-based. The note with it: class by percent of control at 10^-7 M or IC50. The method, boiled down: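 Antagonism is measured as inhibition of the intracellular calcium rise triggered by 50 nM MCH in cells bearing a constitutively active, non-endogenous form of the receptor. Cells are dye-loaded with Fluo4-AM and exposed to compound for 3 min at 37° C before agonist addition.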

Molecules are shown by their SMILES.

On to `COC(=O)c1ccc(NC(=S)N[C@H]2CC[C@@H](Nc3nc(N(C)C)c4ccccc4n3)CC2)cc1` [compound 278], for which the class is given as 2 (Class 2: The value of percent of control at 10^−7 M was from 40% to 60% or the value of IC50 was from 50 nM to 200 nM.).
The value for `Cc1ccc(NC(=S)N[C@H]2CC[C@@H](Nc3nc(N(C)C)c4ccccc4n3)CC2)c([N+](=O)[O-])c1` [compound 279] was 3 (Class 3: The value of percent of control at 10^−7 M was more than 60% or the value of IC50 was more than 200 nM.).
The value for `Cc1ccc(CNC(=S)N[C@H]2CC[C@@H](Nc3nc(N(C)C)c4ccccc4n3)CC2)cc1` [compound 280] was 3 (Class 3: The value of percent of control at 10^−7 M was more than 60% or the value of IC50 was more than 200 nM.); that for `CCCCc1ccc(NC(=S)N[C@H]2CC[C@@H](Nc3nc(N(C)C)c4ccccc4n3)CC2)cc1` [compound 281] was 3 (Class 3: The value of percent of control at 10^−7 M was more than 60% or the value of IC50 was more than 200 nM.); that for `COc1ccc(Cl)cc1NC(=S)N[C@H]1CC[C@@H](Nc2nc(N(C)C)c3ccccc3n2)CC1` [compound 282] was 3 (Class 3: The value of percent of control at 10^−7 M was more than 60% or the value of IC50 was more than 200 nM.).
The value for `CN(C)c1nc(N[C@H]2CC[C@@H](NC(=S)NC(c3ccccc3)c3ccccc3)CC2)nc2ccccc12` [compound 284, N-(cis-4-{[4-(dimethylamino)quinazolin-2-yl]amino}cyclohexyl)-N′-(diphenylmethyl)thiourea] was 2 (Class 2: The value of percent of control at 10^−7 M was from 40% to 60% or the value of IC50 was from 50 nM to 200 nM.); that for `CN(C)c1nc(N[C@H]2CC[C@@H](NC(=S)NC3CCCCCCCCCCC3)CC2)nc2ccccc12` [compound 285] was 3 (Class 3: The value of percent of control at 10^−7 M was more than 60% or the value of IC50 was more than 200 nM.).
Consider `CN(C)c1nc(N[C@H]2CC[C@@H](NC(=S)NCC3CCCCC3)CC2)nc2ccccc12` [compound 286, N-(cyclohexylmethyl)-N′-(cis-4-{[4-(dimethylamino)quinazolin-2-yl]amino}cyclohexyl)thiourea], for which the class is 2 (Class 2: The value of percent of control at 10^−7 M was from 40% to 60% or the value of IC50 was from 50 nM to 200 nM.).
The value for `CN(C)c1nc(N[C@H]2CC[C@@H](NC(=S)NC3CCCCCCC3)CC2)nc2ccccc12` [compound 287, N-cyclooctyl-N′-(cis-4-{[4-(dimethylamino)quinazolin-2-yl]amino}cyclohexyl)thiourea] was 2 (Class 2: The value of percent of control at 10^−7 M was from 40% to 60% or the value of IC50 was from 50 nM to 200 nM.); that for `CN(C)c1nc(N[C@H]2CC[C@@H](NC(=S)NC3CC3)CC2)nc2ccccc12` [compound 288, N-cyclopropyl-N′-(cis-4-{[4-(dimethylamino)quinazolin-2-yl]amino}cyclohexyl)thiourea] was 2 (Class 2: The value of percent of control at 10^−7 M was from 40% to 60% or the value of IC50 was from 50 nM to 200 nM.).
In the case of `CN(C)c1nc(N[C@H]2CC[C@@H](NC(=S)NCc3cccc4ccccc34)CC2)nc2ccccc12` [compound 289, N-(cis-4-{[4-(dimethylamino)quinazolin-2-yl]amino}cyclohexyl)-N′-(1-naphthylmethyl)thiourea] it was 1 (Class 1: The value of percent of control at 10^−7 M was less than 40% or the value of IC50 was less than 50 nM.).
Regarding `CN(C)c1nc(N[C@H]2CC[C@@H](NC(=S)NCC(c3ccccc3)c3ccccc3)CC2)nc2ccccc12` [compound 290, N-(cis-4-{[4-(dimethylamino)quinazolin-2-yl]amino}cyclohexyl)-N′-(2,2-diphenylethyl)thiourea], the class is 2 (Class 2: The value of percent of control at 10^−7 M was from 40% to 60% or the value of IC50 was from 50 nM to 200 nM.).
With `CN(C)c1nc(N[C@H]2CC[C@@H](NC(=S)Nc3c(Cl)c(Cl)cc(Cl)c3Cl)CC2)nc2ccccc12` [compound 291], the class is 3 (Class 3: The value of percent of control at 10^−7 M was more than 60% or the value of IC50 was more than 200 nM.).
The value for `COc1cccc(CNC(=S)N[C@H]2CC[C@@H](Nc3nc(N(C)C)c4ccccc4n3)CC2)c1OC` [compound 292, N-(2,3-dimethoxybenzyl)-N′-(cis-4-{[4-(dimethylamino)quinazolin-2-yl]amino}cyclohexyl)thiourea] was 1 (Class 1: The value of percent of control at 10^−7 M was less than 40% or the value of IC50 was less than 50 nM.).
The value for `Cc1cc(C)c(NC(=S)N[C@H]2CC[C@@H](Nc3nc(N(C)C)c4ccccc4n3)CC2)cc1C` [compound 293, N-(cis-4-{[4-(dimethylamino)quinazolin-2-yl]amino}cyclohexyl)-N′-(2,4,5-trimethylphenyl)thiourea] was 1 (Class 1: The value of percent of control at 10^−7 M was less than 40% or the value of IC50 was less than 50 nM.); that for `CN(C)c1nc(N[C@H]2CC[C@@H](NC(=S)NCc3ccc(Cl)cc3Cl)CC2)nc2ccccc12` [compound 294] was 3 (Class 3: The value of percent of control at 10^−7 M was more than 60% or the value of IC50 was more than 200 nM.).
The value for `CN(C)c1nc(N[C@H]2CC[C@@H](NC(=S)Nc3cc(Br)ccc3Br)CC2)nc2ccccc12` [compound 295] was 3 (Class 3: The value of percent of control at 10^−7 M was more than 60% or the value of IC50 was more than 200 nM.).
As to `COc1ccc(OC)c(CCNC(=S)N[C@H]2CC[C@@H](Nc3nc(N(C)C)c4ccccc4n3)CC2)c1` [compound 296, N-[2-(2,5-dimethoxyphenyl)ethyl]-N′-(cis-4-{[4-(dimethylamino)quinazolin-2-yl]amino}cyclohexyl)thiourea], the class is listed as 2 (Class 2: The value of percent of control at 10^−7 M was from 40% to 60% or the value of IC50 was from 50 nM to 200 nM.).
In the case of `CN(C)c1nc(N[C@H]2CC[C@@H](NC(=S)Nc3ccccc3-c3ccccc3)CC2)nc2ccccc12` [compound 297, N-biphenyl-2-yl-N′-(cis-4-{[4-(dimethylamino)quinazolin-2-yl]amino}cyclohexyl)thiourea] it was 1 (Class 1: The value of percent of control at 10^−7 M was less than 40% or the value of IC50 was less than 50 nM.); in that of `CN(C)c1nc(N[C@H]2CC[C@@H](NC(=S)Nc3cc([N+](=O)[O-])ccc3Cl)CC2)nc2ccccc12` [compound 298], 3 (Class 3: The value of percent of control at 10^−7 M was more than 60% or the value of IC50 was more than 200 nM.).
The value for `CN(C)c1nc(N[C@H]2CC[C@@H](NC(=S)Nc3ccccc3C#N)CC2)nc2ccccc12` [compound 299] was 3 (Class 3: The value of percent of control at 10^−7 M was more than 60% or the value of IC50 was more than 200 nM.); that for `CN(C)c1nc(N[C@H]2CC[C@@H](NC(=S)NCc3ccccc3F)CC2)nc2ccccc12` [compound 300] was 2 (Class 2: The value of percent of control at 10^−7 M was from 40% to 60% or the value of IC50 was from 50 nM to 200 nM.).
`COc1ccc([N+](=O)[O-])cc1NC(=S)N[C@H]1CC[C@@H](Nc2nc(N(C)C)c3ccccc3n2)CC1` [compound 301]: the class was 3 (Class 3: The value of percent of control at 10^−7 M was more than 60% or the value of IC50 was more than 200 nM.).
The value for `Cc1cc([N+](=O)[O-])ccc1NC(=S)N[C@H]1CC[C@@H](Nc2nc(N(C)C)c3ccccc3n2)CC1` [compound 302, N-(cis-4-{[4-(dimethylamino)quinazolin-2-yl]amino}cyclohexyl)-N′-(2-methyl-4-nitrophenyl)thiourea] was 1 (Class 1: The value of percent of control at 10^−7 M was less than 40% or the value of IC50 was less than 50 nM.); that for `Cc1ccccc1CNC(=S)N[C@H]1CC[C@@H](Nc2nc(N(C)C)c3ccccc3n2)CC1` [compound 303, N-(cis-4-{[4-(dimethylamino)quinazolin-2-yl]amino}cyclohexyl)-N′-(2-methylbenzyl)thiourea] was 2 (Class 2: The value of percent of control at 10^−7 M was from 40% to 60% or the value of IC50 was from 50 nM to 200 nM.).
In the case of `COc1ccc(CNC(=S)N[C@H]2CC[C@@H](Nc3nc(N(C)C)c4ccccc4n3)CC2)cc1OC` [compound 304] it was 3 (Class 3: The value of percent of control at 10^−7 M was more than 60% or the value of IC50 was more than 200 nM.); in that of `CN(C)c1nc(N[C@H]2CC[C@@H](NC(=S)NCc3cccc(Cl)c3)CC2)nc2ccccc12` [compound 305, N-(3-chlorobenzyl)-N′-(cis-4-{[4-(dimethylamino)quinazolin-2-yl]amino}cyclohexyl)thiourea], 1 (Class 1: The value of percent of control at 10^−7 M was less than 40% or the value of IC50 was less than 50 nM.); in that of `CCOC(=O)c1cccc(NC(=S)N[C@H]2CC[C@@H](Nc3nc(N(C)C)c4ccccc4n3)CC2)c1` [compound 306], 1 (Class 1: The value of percent of control at 10^−7 M was less than 40% or the value of IC50 was less than 50 nM.).
In the case of `CCc1cccc(NC(=S)N[C@H]2CC[C@@H](Nc3nc(N(C)C)c4ccccc4n3)CC2)c1` [compound 307] it was 2 (Class 2: The value of percent of control at 10^−7 M was from 40% to 60% or the value of IC50 was from 50 nM to 200 nM.); in that of `CN(C)c1nc(N[C@H]2CC[C@@H](NC(=S)NCc3cccc(F)c3)CC2)nc2ccccc12` [compound 308, N-(cis-4-{[4-(dimethylamino)quinazolin-2-yl]amino}cyclohexyl)-N′-(3-fluorobenzyl)thiourea], 2 (Class 2: The value of percent of control at 10^−7 M was from 40% to 60% or the value of IC50 was from 50 nM to 200 nM.).
Consider `COc1cccc(CNC(=S)N[C@H]2CC[C@@H](Nc3nc(N(C)C)c4ccccc4n3)CC2)c1` [compound 309, N-(cis-4-{[4-(dimethylamino)quinazolin-2-yl]amino}cyclohexyl)-N′-(3-methoxybenzyl)thiourea], for which the class is listed as 2 (Class 2: The value of percent of control at 10^−7 M was from 40% to 60% or the value of IC50 was from 50 nM to 200 nM.).
